Patent publication US20250114466A1, “ANTIFOLATE LINKER-DRUGS AND ANTIBODY-DRUG CONJUGATES” (BYONDIS B.V., priority 2021, published 2025)

Experiments:
Type in all cases: cell-based
[1] = system: SW-620 cells; assay: In vitro cell viability assay (CellTiter-Glo, 6 days), SW-620; conditions: Homo sapiens, SW-620, 144 h, free antifolate drug, Table 1a
Method: (§1) FaDu, BxPC-3, HeLa, MV4-11, and RAJI cell lines were obtained from Deutsche Sammlung von Mikroorganismen und Zellkulturen ([…], Germany). Jurkat NucLight Red cells were obtained from Essen BioScience Inc. (Ann Arbor, MI, USA). SK-BR-3 and SK-OV-3 cells were cultured in McCoys 5A medium (Lonza; Walkersville, MD, USA) supplemented with 10% v/w Fetal Bovine Serum (FBS), Heat-inactivated (HI) (Gibco-Life Technologies; Carlsbad, CA) and 80 U/mL Pen/Strep (Gibco-Life Technologies), at 37° C. in a humidified incubator under 5% CO2 atmosphere. SW-620 cells were similarly maintained in RPMI 1640 medium (Lonza), containing 10% v/w FBS HI and 80 U/mL Pen/Strep. […]
(§2) After an overnight incubation, 10 serial log 10 dilutions of the free drugs were made in DMSO (Sigma-Aldrich). […] Cell viability was assessed after 6 days using a luminescent assay kit (CellTiter-Glo™ (CTG), Promega Corporation) according to the manufacturer's instructions. Percentage cell survival was calculated by dividing the measured luminescence for each free drug or ADC according to the concentration with the average mean of untreated cells (1% or 0.1% DMSO control (for free drugs) or 100% complete growth medium (for ADCs)) multiplied by 100. […]

[2] = system: A-549 cells; assay: In vitro cell viability assay (CellTiter-Glo, 6 days), A-549; conditions: Homo sapiens, A549, 144 h, free antifolate drug, Table 1a
Method: Human tumor cell lines SK-BR-3, SW-620, A-549, BT-474, Jurkat Clone E6-1, AU-565, and SK-OV-3 were obtained from American Type Culture Collection (Rockville, MD, USA). FaDu, BxPC-3, HeLa, MV4-11, and RAJI cell lines were obtained from Deutsche Sammlung von Mikroorganismen und Zellkulturen ([…], Germany). Jurkat NucLight Red cells were obtained from Essen BioScience Inc. (Ann Arbor, MI, USA). […]
Cells in complete growth medium were plated in 96-well plates (90 μL/well) and incubated at 37° C., 5% CO2 at the following cell densities: 6500 SK-BR-3, 4000 SW-620, 2500 A-549, 10000 BT-474, 3000 Jurkat Clone E6-1, 5000 AU-565, 1250 FaDu, 1250 BxPC-3, 1000 HeLa, 7500 MV4-11, 1000 RAJI, 3000 Jurkat NucLight Red, and 4000 SK-OV-3 cells per well. […] Cell viability was assessed after 6 days using a luminescent assay kit (CellTiter-Glo™ (CTG), Promega Corporation) according to the manufacturer's instructions. Percentage cell survival was calculated by dividing the measured luminescence for each free drug or ADC according to the concentration with the average mean of untreated cells (1% or 0.1% DMSO control (for free drugs) or 100% complete growth medium (for ADCs)) multiplied by 100. […]

[3] = system: SK-BR-3 cells; assay: In vitro cell viability assay (CellTiter-Glo, 6 days), SK-BR-3; conditions: Homo sapiens, SK-BR-3, 144 h, free antifolate drug, Table 1a
Method: as §1, §2

[4] = system: Human tumor cell lines; assay: In vitro cell viability assays, free antifolate drugs, overall comparison; conditions: for antifolate activity compared with talotrexin: Tables 1a-1d
Method: Human tumor cell lines SK-BR-3, SW-620, A-549, BT-474, Jurkat Clone E6-1, AU-565, and SK-OV-3 were obtained from American Type Culture Collection (Rockville, MD, USA). FaDu, BxPC-3, HeLa, MV4-11, and RAJI cell lines were obtained from Deutsche Sammlung von Mikroorganismen und Zellkulturen ([…], Germany). Jurkat NucLight Red cells were obtained from Essen BioScience Inc. (Ann Arbor, MI, USA). SK-BR-3 and SK-OV-3 cells were cultured in McCoys 5A medium (Lonza; Walkersville, MD, USA) supplemented with 10% v/w Fetal Bovine Serum (FBS), Heat-inactivated (HI) (Gibco-Life Technologies; Carlsbad, CA) and 80 U/mL Pen/Strep (Gibco-Life Technologies), at 37° C. in a humidified incubator under 5% CO2 atmosphere. SW-620 cells were similarly maintained in RPMI 1640 medium (Lonza), containing 10% v/w FBS HI and 80 U/mL Pen/Strep. A-549 cells were similarly maintained in F-12K Nutrient Mixture (1×) (Gibco-Life Technologies) media supplemented with 80 U/mL Pen/Strep and 5% v/w FBS, which was Qualified (Q) (Gibco-Life Technologies). BT-474 and AU-565 cells were similarly maintained in RPMI 1640 medium (Lonza), containing 10% v/w FBS, which was Qualified (Q) (Gibco-Life Technologies), and 80 U/mL Pen/Strep. Jurkat Clone E6-1, BxPC-3, HeLa, MV4-11, and RAJI cells were similarly maintained in RPMI 1640 medium (Lonza), containing 10% v/w FBS HI and 80 U/mL Pen/Strep. Jurkat NucLight Red cells were similarly maintained in RPMI 1640 medium (Lonza), containing 10% v/w FBS HI, 80 U/mL Pen/Strep and 0.5 μg/mL Puromycin (Gibco-Life Technologies). FaDu cells were cultured in EMEM medium (Lonza) supplemented with 10% v/w FBS HI (Gibco-Life Technologies), 1× GlutaMAX (Gibco-Life Technologies), and 80 U/mL Pen/Strep (Gibco-Life Technologies), at 37° C. in a humidified incubator under 5% CO2 atmosphere.
Cells in complete growth medium were plated in 96-well plates (90 μL/well) and incubated at 37° C., 5% CO2 at the following cell densities: 6500 SK-BR-3, 4000 SW-620, 2500 A-549, 10000 BT-474, 3000 Jurkat Clone E6-1, 5000 AU-565, 1250 FaDu, 1250 BxPC-3, 1000 HeLa, 7500 MV4-11, 1000 RAJI, 3000 Jurkat NucLight Red, and 4000 SK-OV-3 cells per well. After an overnight incubation, 10 serial log 10 dilutions of the free drugs were made in DMSO (Sigma-Aldrich). These free drug dose-response curves were 10-times further diluted in complete growth medium. For the ADCs according to the invention 10 serial log 10 dilutions were made in complete growth medium. 10 μL of a composition comprising a free drug or an ADC according to the invention was added to the assay plate (final DMSO content for free drugs was 1%). […] Cell viability was assessed after 6 days using a luminescent assay kit (CellTiter-Glo™ (CTG), Promega Corporation) according to the manufacturer's instructions. Percentage cell survival was calculated by dividing the measured luminescence for each free drug or ADC according to the concentration with the average mean of untreated cells (1% or 0.1% DMSO control (for free drugs) or 100% complete growth medium (for ADCs)) multiplied by 100.
Curves were fitted by non-linear regression using the sigmoidal dose-response equation with variable slope (four parameters) using curve-fitting software (GraphPad Prism, version 9.4.0 for Windows, GraphPad, San Diego, CA or Electronic Laboratory Notebook (ELN) add-in BioAssay, version 19.1.0.0218, Perkin Elmer, Waltham, MA). Relative IC50 values were calculated as the concentration that gives a response halfway between bottom and top of the curve, when using a 4-parameter logistic fit. Data were reported as mean IC50 value of at least one experiment performed in duplicate.

SMILES | antifolate activity compared with talotrexin [4] | further results
Nc1nc(N)c2nc(CNc3ccc(C(=O)N[C@@H](CCCNC(=O)c4ccccc4C(=O)O)C(=O)O)cc3)cnc2n1 [Talotrexin] |  | IC50 [1]: 1.74 nM; IC50 [2]: 1.7 nM; IC50 [3]: 1.83 nM
Nc1ccc(C(=O)NCCC[C@H](NC(=O)c2ccc(CCc3ccc4nc(N)nc(N)c4c3)cc2)C(=O)O)cc1 [XJ4, (S)-5-(4-Aminobenzamido)-2-(4-(2-(2,4-diaminoquinazolin-6-yl)ethyl)benzamido)pentanoic acid] | less active than talotrexin | 
Nc1ccc(C(=O)NCCC[C@H](NC(=O)c2ccc(NCc3cnc4nc(N)nc(N)c4n3)cc2)C(=O)O)cc1 [XT35, (S)-5-(4-Aminobenzamido)-2-(4-(((2,4-diaminopteridin-6-yl)methyl)amino)benzamido) pentanoic acid] | less active than talotrexin | 
Nc1ccc(C(=O)NCCC[C@H](NC(=O)c2ccc(NCc3ccc4nc(N)nc(N)c4c3Cl)cc2)C(=O)O)c(-c2nnn[nH]2)c1 [XT110, (S)-5-(4-Amino-2-(1H-tetrazol-5-yl)benzamido)-2-(4-(((2,4-diamino-5-chloroquinazolin-6-yl)methyl)amino)benzamido)pentanoic acid] |  | antifolate activity compared with XX35 ([4]; 5-chloroquinazoline-2,4-diamine instead of pteridine-2,4-diamine): strongly increased the antifolate activity
[N-]=[N+]=Nc1ccc(C(=O)NCCC[C@H](NC(=O)c2ccc(CCc3cnc4nc(N)nc(N)c4n3)cc2)C(=O)O)cc1 [XX5, (S)-5-(4-Azidobenzamido)-2-(4-(2-(2,4-diaminopteridin-6-yl)ethyl)benzamido) pentanoic acid] | less active than talotrexin | 
Nc1ccc(C(=O)NCCC[C@H](NC(=O)c2ccc(CCc3cnc4nc(N)nc(N)c4n3)cc2)C(=O)O)cc1 [XX7, (S)-5-(4-Aminobenzamido)-2-(4-(2-(2,4-diaminopteridin-6-yl)ethyl)benzamido) pentanoic acid] | less active than talotrexin | 
CN(Cc1cnc2nc(N)nc(N)c2n1)c1ccc(C(=O)N[C@@H](CCCNC(=O)c2ccc(N)cc2)C(=O)O)cc1 [XX12, (S)-5-(4-aminobenzamido)-2-(4-(((2,4-diaminopteridin-6-yl)methyl)(methyl)amino)benzamido)pentanoic acid] | less active than talotrexin | 
